# Source: patent publication US7731856B2, “Method and system for treating waste matter from animals, urea-rich and urea-lean waste-matter products, and uses thereof” (Waste 2 Green, LLC, priority 2003, dated 2010)
# Read-outs that look alike come from different tables or passages of the source.
# Assays:
# [1] = system: urease activity from natural animal faeces; experiment: stable experiment: collected liquid manure and faeces with inhibitor, hyperfiltration, polymerisation with methanal; design: species or system pigs; conditions: for polymerisation of concentrated livestock-produced urea with methanal: 50 ml of hyperfiltration concentrate plus 30 ml methanal
# Experimental: Below a stable floor supporting 20 pigs to be slaughtered a large plastic foil covering the underlying floor having the shape of an inverted pyramid was placed. […] The liquid manure and faeces of the animals were collected on this foil for the next 24 hours. From this foil 20 l sample was collected (and separated) and treated in a hyperfiltration system of the type ROMEDI-250 supplied by UNION-filtration a/s, Nakskov, Denmark. The separation process was continued until a total of 15 l permeate liquid—water was withdrawn. The urea-lean fraction was disposed.
# urease [2] = target: urease (Canavalia ensiformis, UniProt P07374)
# Experimental: This can simply be studied by addition of 30 ml of methanal to the urease-contaminated and Cu^2+-contaminated reference system.
# This is simple studied by addition of 30 ml methanal to the reference system contaminated with urease, Ag^+- or Pb^2+-ions.
# urease EC 3.5.1.5 = urease EC 3.5.1.5 (Canavalia ensiformis, UniProt P07374)
# Experimental: For this example, a colourless urea reference system is defined by the following mixture: in a conical flask 10 g of synthetic urea is diluted with water to 50 ml, three drops of the acid-base indicator phenolphthalein is added.
# urease [3] = system: urease
# [4] = 30 ml methanal (24% by weight) added to urease-contaminated urea system containing the inhibitor
# Sequence of urease (Canavalia ensiformis, UniProt P07374) (P07374 whole entry, looked up): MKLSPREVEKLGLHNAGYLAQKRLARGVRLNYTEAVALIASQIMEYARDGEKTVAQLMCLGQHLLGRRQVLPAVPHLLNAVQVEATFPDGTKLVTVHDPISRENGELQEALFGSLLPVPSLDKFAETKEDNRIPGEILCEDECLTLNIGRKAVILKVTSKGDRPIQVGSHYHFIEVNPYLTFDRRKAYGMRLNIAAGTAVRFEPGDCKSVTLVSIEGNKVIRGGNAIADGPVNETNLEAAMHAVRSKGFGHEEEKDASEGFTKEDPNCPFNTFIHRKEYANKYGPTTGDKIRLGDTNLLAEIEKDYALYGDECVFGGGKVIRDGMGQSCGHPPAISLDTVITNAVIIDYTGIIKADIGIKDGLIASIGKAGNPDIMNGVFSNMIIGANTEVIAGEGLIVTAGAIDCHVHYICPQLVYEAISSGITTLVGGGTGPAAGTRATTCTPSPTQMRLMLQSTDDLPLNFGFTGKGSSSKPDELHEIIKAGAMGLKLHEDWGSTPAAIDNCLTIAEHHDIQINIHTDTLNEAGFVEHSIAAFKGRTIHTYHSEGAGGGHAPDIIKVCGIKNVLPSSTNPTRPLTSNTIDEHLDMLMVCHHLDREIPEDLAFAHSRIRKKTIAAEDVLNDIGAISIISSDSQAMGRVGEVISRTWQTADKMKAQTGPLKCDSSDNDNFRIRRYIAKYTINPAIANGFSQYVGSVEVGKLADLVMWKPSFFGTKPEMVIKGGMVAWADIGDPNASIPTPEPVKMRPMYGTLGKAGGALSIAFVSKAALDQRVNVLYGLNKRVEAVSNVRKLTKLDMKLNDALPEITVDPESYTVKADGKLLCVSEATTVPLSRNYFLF
# Sequence of urease EC 3.5.1.5 (P07374 whole entry, looked up): as above
molecule,measurement,setting,value
CC(=O)[O-].CC(=O)[O-].[Pb+2] [lead acetate],polymerisation of concentrated livestock-produced urea with methanal,[1],can be reproduced
"copper sulphate, pentahydrate",urease activity in manure system,"[1]; 5 l water and 10 g copper sulphate, pentahydrate below stable floor, 20 pigs, 24 hours collection",remove the urease activity
same,polymerisation of concentrated livestock-produced urea with methanal,[1],the polymerisation proceeded
NCCN [ethylenediamine],formation of urea formaldehyde plastic in spite of urease contamination,urease [2],it is possible to form the urea formaldehyde plastic
same,polymerisation of concentrated livestock-produced urea with methanal,[1],can be reproduced
CC(=NO)C(C)=NO [dimethylglyoxime],formation of urea formaldehyde plastic in spite of urease contamination,urease [2]; [4],it is possible to form the urea formaldehyde plastic
same,polymerisation of concentrated livestock-produced urea with methanal,[1],can be reproduced
O=[N+]([O-])[O-].[Ag+] [silver nitrate],colour shift of phenolphthalein into red (ammonia formation by urea hydrolysis),"urease EC 3.5.1.5; 1 g inhibitor added to 10 g urea in 50 ml water, then 1 ml urease (540 units per ml), system also does not begin to smell of ammonia",the colour shift of phenolphthalein does not occur
same,catalytic effect of the urease enzyme on the hydrolysis of urea,urease EC 3.5.1.5; ions present in the urinal system,completely lost
same,formation of urea formaldehyde plastic in spite of urease contamination,urease [2]; [4],it is possible to form the urea formaldehyde plastic
same,polymerisation of concentrated livestock-produced urea with methanal,[1],can be reproduced
NC(N)=O [urea],Km,"urease [3]; pH 5.5, pig manure system",~1000 µM
same,νm,"urease [3]; pH 5.5, pig manure system",approximately 2×10^−3 mol/dm^3/min
same,Km,"urease [3]; pH 7, similar manure system",~4000 µM
same,νm,"urease [3]; pH 7, similar manure system",approximately 11×10^−3 mol/dm^3/min
